Source: patent publication US8507464B2, “Phosphoramidate alkylator prodrugs” (Threshold Pharmaceuticals, Inc., priority 2005, dated 2013)
Where two headings read alike, the source gives them in different places.

Key:
[1] = test system: mouse (MLM) liver microsomal proteins; format: in vitro ADME; settings: for Metabolic stability (MLM) (% at 30 min): Table 2B
MTD (Table 2B) = settings: in vivo
[2] = Plasma stability (Table 2B); settings: 30 min
NCI-H460 cells [3] = test: Antiproliferation assay (Alamar Blue), anoxia vs air; settings: Homo sapiens, NCI-H460, 2 h
HT29 cells = test: as above; settings: Homo sapiens, HT-29, 2 h
MES-SA/Dx5 cells = test: as above; settings: Homo sapiens, MES-SA/Dx5, 2 h
H460 cell line = test: Anti-proliferation assay, hypoxia vs normoxia (Table 1A); settings: for IC50: Homo sapiens; for HCR P: ratio of IC50 in normoxia and hypoxia
HT29 = test: Anti-proliferation assay, hypoxia vs normoxia (Table 1B); settings: for IC50: Homo sapiens
DX-5 = test: as above
in vivo [4] = test: in vivo
NCI-H460 cells [5] = test: Antiproliferation assay - oxygen dependence; format: cell-based, human; settings: Homo sapiens
Excerpt: . […] The calculated IC50 values (μM) are tabulated in Table Y1 (H460 cells) or Table Y2 (HT29 cells) below.

[6] = format: physicochemical; settings: glassy carbon, Ag/AgCl reference
[7] = logP (partitioning between octanol and water); format: physicochemical; settings: logP
Excerpt: As used herein “LogP” means a measure of lipophilicity of a substance determined based on the partitioning of the substance betwen octanol and water.

NCI H460 xenograft [8] = format: in vivo, mouse; settings: day 27, vs vehicle
Excerpt: Comparisons were made on day 27 because that was the last day of measurements for the vehicle group and those animals were sacrificed.

HT29 xenograft = test: HT-29 human colon carcinoma xenograft mouse model (Example 50); format: in vivo
Method: Female CB17/SCID mice (purchased from Charles River, Cambridge, Mass.), 7-8 weeks of age, were allowed to acclimatize for at least three days, and handled under pathogen-free conditions. Human colon carcinoma cell line HT29 was obtained from the American Type Culture Collection. The cell lines were cultured and harvested as described in Example 47 above, and inoculated at 3×10^6 cells/animal in the peritoneal subcutaneous space. […]; in saline) on the days the combination therapy was scheduled; 5FU alone (in saline), or CDDP alone.
In control groups, tumors were implanted in two locations as part of a separate study of effect of location on control group tumor growth. […] The body weight and tumor volume were measured as described in Example 47. Tumor growth inhibition measured on day 25 when vehicle tumors had reached the maximal size and animals in that group were sacrificed is tabulated below.

in vivo [9] = settings: CD-1, mouse, ip, 50 mg/kg
[10] = test system: H460 lung carcinoma spheroids; test: Spheroid model, clonogenic survival; settings: Homo sapiens, NCI-H460, 2 h, read-out: IC90 H460 Spheroid 10% O2
NCI-H460 cells [11] = test: Clonogenic assay - oxygen dependence; settings: Homo sapiens
[12] = test system: H460 cells exposed as monolayers; test: Clonogenic survival of monolayer cells (Example 35); settings: Homo sapiens, NCI-H460, 2 h
MES-SA cells = test: Antiproliferation assay (Alamar Blue), anoxia vs air; settings: Homo sapiens, 2 h
NCI H460 xenograft [13] = test: NCI H460 non small cell lung carcinoma xenograft mouse model (Example 48); format: in vivo; settings: Group 6: Taxol (q2d × 3)/week × 2 weeks; day 29; vs vehicle
Method: Female CB17/SCID mice (purchased from Charles River, Cambridge, Mass.), 7-8 weeks of age, were allowed to acclimatize for at least three days, and handled under pathogen-free conditions. Human […] cell line NCI H460 was obtained from the American Type Culture Collection. The cell lines were cultured and harvested according to the procedure described in Example 47 and inoculated at 1×10^6 cells/animal in the peritoneal subcutaneous space. When the tumors grew to an average volume of 100 mm^3 (day 8), […], as tabulated in the table below: Compound 25 (2.5 mg/ml in 10% PEG; administration route—i.p.) and Taxol (1 mg/ml in 5% EtOH, 5% Cremophor and 90% saline; administration—i.v. 2 h after administration of Compound 25). The body weight and tumor volumes were measured as described in Example 47 above.
Results are presented in Table X2 based on tumor volume measurement on day 29 when vehicle treated mice had reached a volume of 946 mm^3. Groups of 5 mice receiving saline or no treatment were added in order to indicate any vehicle effects but are not used for comparisons in this analysis.

[14] = test system: human (HLM) liver microsomal proteins; test: Metabolic stability in liver microsomal protein; format: in vitro ADME; settings: Table 2A, second study, 5 μM
[15] = test system: rat (RLM) liver microsomal proteins; test: Metabolic stability in liver microsomal protein; format: in vitro ADME; settings: 5 μM
[16] = read-out: IC50 H460 Air, air, 2 h exposure
[17] = read-out: IC50 H460 Anoxia, anoxia, 2 h exposure
[18] = read-out: IC50 MES-SA/Dx5 Anoxia
[19] = NCI-H460, read-out: Hypoxia P (proliferation IC50)
[20] = NCI-H460, read-out: Normoxia P (proliferation IC50)
[21] = HT-29, read-out: HT29 P H (proliferation IC50, hypoxia)
[22] = HT-29, read-out: HT29 P N (proliferation IC50, normoxic)
[23] = read-out: DX-5 P H (proliferation IC50, hypoxia)
[24] = read-out: DX-5 P N (proliferation IC50, normoxic)

## Cn1c(COP(=O)(N(CCCl)CCCl)N(CCCl)CCCl)cnc1[N+](=O)[O-] [Compound 6]
[1]
  Metabolic stability (MLM) (% at 30 min): 0%
MTD (Table 2B)
  MTD: 250 mg/kg
[2]
  Plasma stability (% at 30 min): 60%
NCI-H460 cells [3]; [16]
  IC50: > 100000 nM
NCI-H460 cells [3]; [17]
  IC50: 700 nM
HT29 cells; read-out: IC50 HT29 Air
  IC50: > 100000 nM
HT29 cells; read-out: IC50 HT29 Anoxia
  IC50: 22000 nM
MES-SA/Dx5 cells; read-out: IC50 MES-SA/Dx5 Air
  IC50: > 100000 nM
MES-SA/Dx5 cells; [18]
  IC50: 5000 nM
H460 cell line; [19]
  IC50: 700 nM
H460 cell line; [20]
  IC50: > 100000 nM
H460 cell line
  HCR P: >140
HT29
  HT29 HCR P: >2
HT29; [21]
  IC50: 55000 nM
HT29; [22]
  IC50: > 100000 nM
DX-5
  DX-5 HCR: >20
DX-5; [23]
  IC50: 5000 nM
DX-5; [24]
  IC50: > 100000 nM

## Cn1c(COP(=O)(N(CCCl)C2CC2)N(CCCl)C2CC2)cnc1[N+](=O)[O-] [Compound 7]
[1]
  Metabolic stability (MLM) (% at 30 min): 0%
In vivo [4]
  MTD: 250 mg/kg
[2]
  Plasma stability (% at 30 min): 85%
NCI-H460 cells [3]; [16]
  IC50: 25000 nM
NCI-H460 cells [3]; [17]
  IC50: 140 nM
HT29 cells; read-out: IC50 HT29 Air
  IC50: > 100000 nM
HT29 cells; read-out: IC50 HT29 Anoxia
  IC50: 7000 nM
MES-SA/Dx5 cells; read-out: IC50 MES-SA/Dx5 Air
  IC50: 83000 nM
MES-SA/Dx5 cells; [18]
  IC50: 590 nM
H460 cell line; [19]
  IC50: 140 nM
H460 cell line; [20]
  IC50: 25000 nM
H460 cell line
  HCR P: 180
HT29
  HT29 HCR P: >5
HT29; [21]
  IC50: 7000 nM
HT29; HT-29, read-out: HT29 P H, value in parentheses
  IC50: 100000 nM
HT29; [22]
  IC50: > 100000 nM
HT29; parentheses not explained
  HT29 HCR P, value in parentheses: (1)
DX-5
  DX-5 HCR: 140
DX-5; [23]
  IC50: 600 nM
DX-5; [24]
  IC50: 83000 nM

## O=[N+]([O-])c1ccc(COP(=O)(NCCBr)NCCBr)o1 [Compound 24]
NCI-H460 cells [5]; NCI-H460, read-out: IC50 in H460 cells, 0.6% O2
  IC50: 850 nM
NCI-H460 cells [5]; NCI-H460, read-out: IC50 in H460 cells, Air
  IC50: > 1000 nM
NCI-H460 cells [5]; NCI-H460, read-out: IC50 in H460 cells, N2
  IC50: 7 nM
[6]; scan rate 100 mV/sec
  Reduction Potentials, 100 mV/sec: −568 mV
[6]; scan rate 10,000 mV/sec
  Reduction Potentials, 10,000 mV/sec: −636 mV
[7]
  logP: < 0
NCI H460 xenograft [8]; Group 3: Compound 24 3 mg/kg (q1d × 5 d)/week × 3 week
  % Inhibition vs Group 1: 39.9%
HT29 xenograft
  tumor growth inhibition, monotherapy: more than 40%
HT29 xenograft; during treatment, recovered after end of treatment
  body weight: minor decreases in weights
In vivo [9]
  AUC: 64000 ng·h/mL
  Cmax: 7600 ng/mL
  Tmax: 5 min
  half-life: 4.1 min
[10]
  IC90: 3000 nM
NCI-H460 cells [11]; NCI-H460, read-out: IC90 H460 0.6% O2
  IC90: 250 nM
NCI-H460 cells [11]; NCI-H460, read-out: IC90 H460 Air
  IC90: 14000 nM
NCI-H460 cells [11]; NCI-H460, read-out: IC90 H460 N2
  IC90: 70 nM
[12]; read-out: IC90 H460 Monolayer 0.6% O2
  IC90: 250 nM
[12]; read-out: IC90 H460 Monolayer Air
  IC90: 4000 nM
[12]; read-out: IC90 H460 Monolayer N2
  IC90: 70 nM
NCI-H460 cells [3]; [16]
  IC50: 4000 nM
NCI-H460 cells [3]; [17]
  IC50: 10 nM
MES-SA cells; read-out: IC50 MES-SA Air
  IC50: 2000 nM
MES-SA cells; read-out: IC50 MES-SA Anoxia
  IC50: 100 nM
MES-SA/Dx5 cells; read-out: IC50 MES-SA/Dx5 Air
  IC50: 800 nM
MES-SA/Dx5 cells; [18]
  IC50: 100 nM
H460 cell line; [19]
  IC50: 10 nM
H460 cell line; NCI-H460, read-out: IC50 in cells under hypoxia
  IC50: 50 nM
H460 cell line; [20]
  IC50: 4000 nM
H460 cell line; anti-proliferation cytotoxicity assay
  fold more toxic in hypoxic cells than in normoxic cells: 400 fold
H460 cell line
  HCR P: 400

## CC(=O)O[C@H]1C(=O)[C@@]2(C)[C@H]([C@H](OC(=O)c3ccccc3)[C@]3(O)C[C@H](OC(=O)[C@H](O)[C@@H](NC(=O)c4ccccc4)c4ccccc4)C(C)=C1C3(C)C)[C@]1(OC(C)=O)CO[C@@H]1C[C@@H]2O [Taxol, paclitaxel, reference compound]
NCI H460 xenograft [13]
  % Inhibition vs Group 2: 46%
NCI H460 xenograft [8]; Group 2: Taxol 10 mg/kg (q2d × 3)/week × 2 week
  % Inhibition vs Group 1: 36.7%

## C[C@]12CC[C@H]3[C@@H](CCC4=CC(=O)CC[C@@]43C)[C@@H]1CC[C@@H]2O [Testosterone, reference compound]
[14]
  Metabolic stability (% at 30 min) HLM: 65%
[15]; Table 1, first study
  Metabolic stability (% at 30 min) RLM: 0%
[15]; Table 2A, second study
  Metabolic stability (% at 30 min) RLM: 33%
[1]; Table 1, first study, 5 μM
  Metabolic stability (% at 30 min) MLM: 6%
